In the SangsterLogP compilation:

test: method code SF-AS, from PMID: 7324974; conditions: pH 5.0

| Structure (SMILES) | logD |
| --- | --- |
| Cc1cc(=O)n2c(C)cccc2n1 | 1.05 |
| CCOC(=O)c1cnc2n(c1=O)C(C)CCC2 (centres undefined) | 0.62 |
| CCN1C=C(C(N)=O)C(=O)N2C(C)CCCC12 (centres undefined) | 0.6 |
| COC(=O)c1cnc2n(c1=O)C(C)CCC2 (centres undefined) | 0.16 |
| CCc1nc2cccc(C)n2c(=O)c1C | 1.87 |
| CCCc1nc2cccc(C)n2c(=O)c1CC | 2.37 |
| COC(=O)c1cnc2n(c1=O)CCCC2 | -0.25 |
| CCOC(=O)c1cnc2n(c1=O)CCCC2 | 0.15 |
| CCc1cccc2nc(C)cc(=O)n12 | 1.63 |
| CCCCC1CCCc2ncc(C(=O)OC)c(=O)n21 (centres undefined) | 1.77 |
| CCOC(=O)c1cnc2ccc(C)cn2c1=O | 0.9 |
| CCc1cc(=O)n2c(C)cccc2n1 | 1.59 |
| COC(=O)c1cnc2n(c1=O)C(C(C)C)CCC2 (centres undefined) | 0.99 |
| CCOC(=O)c1cnc2n(c1=O)CC(C)CC2 (centres undefined) | 0.71 |
| CCOC(=O)c1cnc2cc(C)ccn2c1=O | 0.87 |
| CC1CCCC2N(C)C=C(C(N)=O)C(=O)N12 (centres undefined) | 0.22 |
| CCOC(=O)C1=CNC2CCCC(C)N2C1=O (centres undefined) | 0.79 |
| Cc1cnc2ccccn2c1=O | 0.77 |

Further lines, results first:

| logD | Structure (SMILES) |
| --- | --- |
| 0.25 | CCOC(=O)c1cnc2ccccn2c1=O |
| 0.04 | CC1CCCc2ncc(C(N)=O)c(=O)n21 (centres undefined) |
| 0.51 | CC1CCCC2NC=C(C(N)=O)C(=O)N12 (centres undefined) |
| 2.59 | Cc1cccc2ncc(-c3ccccc3)c(=O)n12 |
| 1.16 | CCOC(=O)c1cnc2c(C)cccn2c1=O |
| 0.66 | CCOC(=O)c1cnc2n(c1=O)CCC(C)C2 (centres undefined) |
| 0.57 | CCOC(=O)C1=CNC2CCCCN2C1=O (centres undefined) |
| 0.12 | CC1CCC=C2N(C)C=C(C(N)=O)C(=O)N21 (centres undefined) |
| 1.14 | CCCC1CCCc2ncc(C(=O)OC)c(=O)n21 (centres undefined) |
| 0.96 | CCOC(=O)c1cnc2cccc(C)n2c1=O |
| 0.45 | CCOC(=O)C1=CN(C)C2CCCC(C)N2C1=O (centres undefined) |
